In ChEMBL document CHEMBL5215005, “Discovery of Efrotomycin Congeners and Heterologous Expression-Based Insights into the Self-Resistance Mechanism” (2022):
In brackets after ≈: the same amount, converted by molar mass.

How the values were obtained:
Type in all cases: functional
Streptomyces albus = assay: Antibacterial activity against Streptomyces albus Del14 assessed as inhibition zone at 10 ug incubated for 2 days by disc diffusion assay; conditions: Del14, 48 h, time 2 day, read-out: IZ
Streptomyces coelicolor = assay: Antibacterial activity against Streptomyces coelicolor YF11 assessed as inhibition zone at 10 ug incubated for 2 days by disc diffusion assay; conditions: YF11, 48 h, time 2 day, read-out: IZ
Streptomyces lividans = assay: Antibacterial activity against Streptomyces lividans SBT18 assessed as inhibition zone at 10 ug incubated for 2 days by disc diffusion assay; conditions: SBT18, 48 h, time 2 day, read-out: IZ
Micrococcus luteus = assay: Antibacterial activity against Micrococcus luteus SCSIO ML01 by Mueller-Hinton broth microdilution method

MIC (Micrococcus luteus) [µg/mL] | Structure (SMILES) | zone of inhibition at 10 µg/disc (Streptomyces albus) [mm] | zone of inhibition at 10 µg/disc (Streptomyces coelicolor) [mm] | zone of inhibition at 10 µg/disc (Streptomyces lividans) [mm]
8 (≈ 10.1 µM) | C/C=C\C=C\[C@@H]1O[C@](O)([C@H](CC)C(=O)NC/C=C/C=C(\C)[C@@H](OC)[C@@H](C)[C@H](O)[C@@H](O)\C=C/C=C/C=C/C=C(\C)C(=O)c2c(O)ccn(C)c2=O)[C@H](O)[C@H](O)C1(C)C | 15 | 8 | 8
8 (≈ 7.17 µM) | C/C=C\C=C\[C@@H]1O[C@](O)([C@H](CC)C(=O)NC/C=C/C=C(\C)[C@@H](OC)[C@@H](C)[C@H](O)[C@@H](O)\C=C/C=C/C=C/C=C(\C)C(=O)c2c(O)ccn(C)c2=O)[C@H](O)[C@H](O[C@H]2O[C@@H](C)[C@H](O[C@@H]3O[C@@H](C)[C@H](O)[C@@H](O)[C@H]3OC)[C@H](OC)[C@@H]2O)C1(C)C | 15 | 8 | 8
8 (≈ 7.07 µM) | C/C=C\C=C\[C@@H]1O[C@](O)([C@@H](CC)C(=O)NC/C=C/C=C(\C)[C@H](OC)[C@H](C)[C@@H]2O[C@H](/C=C/C=C/C=C(\C)C(=O)c3c(O)ccn(C)c3=O)[C@H](O)[C@H]2O)[C@H](O)[C@H](O[C@H]2O[C@@H](C)[C@H](O[C@@H]3O[C@@H](C)[C@H](O)[C@@H](O)[C@H]3OC)[C@H](OC)[C@@H]2O)C1(C)C | 15 | – | –
8 (≈ 7.07 µM) | C/C=C\C=C\[C@@H]1O[C@](O)([C@@H](CC)C(=O)NC/C=C/C=C(\C)[C@H](OC)[C@H](C)[C@@H]2O[C@H](/C=C/C=C/C=C(\C)C(=O)c3c(O)ccn(C)c3=O)[C@@H](O)[C@H]2O)[C@H](O)[C@H](O[C@H]2O[C@@H](C)[C@H](O[C@@H]3O[C@@H](C)[C@H](O)[C@@H](O)[C@H]3OC)[C@H](OC)[C@@H]2O)C1(C)C | 15 | – | –
8 (≈ 7.17 µM) | C/C=C\C=C\[C@@H]1O[C@](O)([C@H](CC)C(=O)NC/C=C/C=C(\C)[C@@H](OC)[C@@H](C)[C@H](O)[C@@H](O)/C=C/C=C/C=C/C=C(\C)C(=O)c2c(O)ccn(C)c2=O)[C@H](O)[C@H](O[C@H]2O[C@@H](C)[C@H](O[C@@H]3O[C@@H](C)[C@H](O)[C@@H](O)[C@H]3OC)[C@H](OC)[C@@H]2O)C1(C)C | 15 | – | –
